Key:
Format in all cases: binding
[1] = biological target: T1, p43 (Tm-DLP-1) (Trichuris muris, UniProt A0A5S6QYG9); experiment: fluorescence titration
T1 construct: native, purified from adult worm excretory/secretory medium by Ni-NTA (natural His-rich tail) and Superdex 75; signal peptide predicted cleaved between 17 and 18

[2] = biological target: T1, p43 (Tm-DLP-1); experiment: fluorescence enhancement and blue shift of probe; settings: approximately 1 μM DACA; PBS pH 7.2
[3] = biological target: T1, p43 (Tm-DLP-1); experiment: intrinsic fluorescence enhancement of ligand; settings: PBS pH 7.2

T1 sequence (A0A5S6QYG9 entry or part of it): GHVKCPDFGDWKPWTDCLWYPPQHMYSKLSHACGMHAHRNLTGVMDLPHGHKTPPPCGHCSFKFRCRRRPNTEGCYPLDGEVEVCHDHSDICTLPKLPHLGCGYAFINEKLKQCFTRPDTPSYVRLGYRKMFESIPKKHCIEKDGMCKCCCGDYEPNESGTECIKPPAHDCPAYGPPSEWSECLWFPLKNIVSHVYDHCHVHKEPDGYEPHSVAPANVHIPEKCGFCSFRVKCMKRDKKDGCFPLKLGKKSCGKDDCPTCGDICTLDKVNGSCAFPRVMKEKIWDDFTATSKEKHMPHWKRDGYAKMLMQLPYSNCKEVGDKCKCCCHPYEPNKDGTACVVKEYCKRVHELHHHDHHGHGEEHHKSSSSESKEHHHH

CN(C)c1cccc2c(S(=O)(=O)NCCCCCCCCCCC(=O)O)cccc12 [DAUDA, 11-((5-dimethylaminonaphthalene-1-sulfonyl)amino)undecanoic]
Kd [1]: 350 nM

CCCCCCC(NS(=O)(=O)c1cccc2c(N(C)C)cccc12)C(=O)O (stereo not shown) [dansyl aminocaprylic acid]
fluorescence enhancement and blue shift of probe [2]: essentially the same observations with another fluorescent probe, dansyl aminocaprylic acid (DACA)

CC\C=C/C=C/C=C/C=C\CCCCCCCC(=O)O [cis-parinaric acid]
intrinsic fluorescence enhancement of ligand ([3]; approximately 4 μM cPnA): p43 bound cPnA strongly and was displaceable with oleic acid (Fig. 1C)

CC1=C(/C=C/C(C)=C/C=C/C(C)=C/CO)C(C)(C)CCC1 [retinol]
intrinsic fluorescence enhancement of ligand ([3]; approximately 1 μM retinol): p43 bound retinol, from which it was displaceable by oleic acid (Fig. 2A)

— publication PMC12238268, “The immunomodulatory p43 secreted protein of Trichuris whipworm parasites is a lipid carrier that binds signalling lipids and precursors” (Scientific Reports, 2025)
